From PubChem BioAssay AID330 (DTP/NCI, 2004) come the findings set out here.

This experiment concerns P388 leukemia ip, CD2F1 mice, survival T/C. Put plainly: NCI In Vivo Anticancer Drug Screen. Data for tumor model P388 Leukemia (intraperitoneal) in CD2F1 (CDF1) mice. Conditions: endpoint: median survival time, higher = longer survival. A digest of the protocol: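 Mice carrying the transplanted tumor received test compound or vehicle. Survival was recorded in each group, and the value is the treated-group measurement divided by that of the vehicle-treated control group.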

[1] abbreviates: dose: 12.5 mg/kg/injection, schedule: Q01DX009 (ip), vehicle: saline.
The mark [2] stands for this setting: dose: 25.0 mg/kg/injection, schedule: Q01DX009 (ip), vehicle: saline.
[3] abbreviates: dose: 50.0 mg/kg/injection, schedule: Q01DX009 (ip), vehicle: saline.
Setting [4] is: dose: 100.0 mg/kg/injection, schedule: Q01DX009 (ip), vehicle: saline.
The mark [5] stands for this setting: dose: 200.0 mg/kg/injection, schedule: Q01DX009 (ip), vehicle: saline.
[6] abbreviates: dose: 100.0 mg/kg/injection, schedule: Q01DX001 (ip), vehicle: Klucel (hydroxypropylcellulose) (HPC).
Setting [7] is: dose: 200.0 mg/kg/injection, schedule: Q01DX001 (ip), vehicle: Klucel (hydroxypropylcellulose) (HPC).
Where [8] appears, read: dose: 50.0 mg/kg/injection, schedule: Q01DX005 (ip), vehicle: Klucel (hydroxypropylcellulose) (HPC).
The mark [9] stands for this setting: dose: 100.0 mg/kg/injection, schedule: Q01DX005 (ip), vehicle: Klucel (hydroxypropylcellulose) (HPC).
The mark [10] stands for this setting: dose: 200.0 mg/kg/injection, schedule: Q01DX005 (ip), vehicle: Klucel (hydroxypropylcellulose) (HPC).
[11] abbreviates: dose: 60.0 mg/kg/injection, schedule: Q01DX005 (ip), vehicle: saline with Tween-80.
[12] abbreviates: dose: 120.0 mg/kg/injection, schedule: Q01DX005 (ip), vehicle: saline with Tween-80.
[13] abbreviates: dose: 240.0 mg/kg/injection, schedule: Q01DX005 (ip), vehicle: saline with Tween-80.
[14] abbreviates: dose: 400.0 mg/kg/injection, schedule: Q01DX009 (ip), vehicle: saline with Tween-80.

“And” between values parts separate entries of the source, which are not always exact repeats. Equal values may be shown once. Inconclusive results and toxic doses are left out.

As to `OCCCN1CCN(CCCO)CC1`, the T/C by setting is: under setting [1], 103 % of control and 96 % of control; under setting [2], 97 % of control and 98 % of control; under setting [3], 92 % of control and 97 % of control; under setting [4], 101 % of control and 95 % of control; under setting [5], 100 % of control and 106 % of control; (dose: 400.0 mg/kg/injection, schedule: Q01DX009 (ip), vehicle: saline) 103 % of control and 91 % of control.

As to `NNc1nnnn1-c1ccccc1`, the T/C (dose: 50.0 mg/kg/injection, schedule: Q01DX001 (ip), vehicle: Klucel (hydroxypropylcellulose) (HPC)) was 100 % of control; the T/C under setting [6] is 104 % of control; the T/C under setting [7] was 102 % of control.

For the molecule `Cc1ccc(S(=O)(=O)NC(=O)n2ccnc2C)cc1`, the T/C under setting [8] was 97 % of control, the T/C under setting [9] is 100 % of control and the T/C under setting [10] is 104 % of control.

Take `N#CC(C(=O)O)c1ccc([N+](=O)[O-])cc1` (stereo not given): the T/C by setting is: under setting [8], 105 % of control; under setting [9], 96 % of control; under setting [10], 99 % of control.

With `[CH3][Sn]([CH3])([O]S(=O)c1ccc(Cl)cc1)[O]S(=O)c1ccc(Cl)cc1` (stereo not given), the T/C is 114 % of control under setting [6] and 105 % of control under setting [7].

For `C[CH2][Hg][S]c1nsc([S][Hg][CH2]C)n1`, the T/C (dose: 3.13 mg/kg/injection, schedule: Q01DX009 (ip), vehicle: Klucel (hydroxypropylcellulose) (HPC)) was 94 % of control; the T/C (dose: 6.25 mg/kg/injection, schedule: Q01DX009 (ip), vehicle: Klucel (hydroxypropylcellulose) (HPC)) is 118 % of control and 95 % of control; the T/C (dose: 12.5 mg/kg/injection, schedule: Q01DX009 (ip), vehicle: Klucel (hydroxypropylcellulose) (HPC)) is 98 % of control and 115 % of control.

Take `CN1C2CCC1C1N=NN(c3cc(C(F)(F)F)cc(C(F)(F)F)c3)C1(N1CCOCC1)C2` (stereo not given): the T/C is, setting by setting: (dose: 50.0 mg/kg/injection, schedule: Q01DX005 (ip), vehicle: Klucel + Tween-80) 102 % of control; (dose: 100.0 mg/kg/injection, schedule: Q01DX005 (ip), vehicle: Klucel + Tween-80) 97 % of control.

In the case of `CC1(c2ccccc2)OC1C(=O)N(c1ccccc1)c1ccccc1` (stereo not given), the T/C by setting is: (dose: 100.0 mg/kg/injection, schedule: Q04DX003 (ip), vehicle: Klucel (hydroxypropylcellulose) (HPC)) 96 % of control; (dose: 200.0 mg/kg/injection, schedule: Q04DX003 (ip), vehicle: Klucel (hydroxypropylcellulose) (HPC)) 94 % of control; (dose: 400.0 mg/kg/injection, schedule: Q04DX003 (ip), vehicle: Klucel (hydroxypropylcellulose) (HPC)) 88 % of control.

In the case of `CN(C)C1CC2CCCCC2CC1OC(=O)c1ccc([N+](=O)[O-])cc1` (stereo not given), the T/C is 101 % of control (dose: 100.0 mg/kg/injection, schedule: Q04DX003 (ip), vehicle: saline with Tween-80); 110 % of control (dose: 200.0 mg/kg/injection, schedule: Q04DX003 (ip), vehicle: saline with Tween-80); 101 % of control (dose: 400.0 mg/kg/injection, schedule: Q04DX003 (ip), vehicle: saline with Tween-80).

With `CCC[CH2][Sn]([CH2]CCC)([CH2]CCC)[CH2]CC[N+](C)(CCO)CCO.CS(=O)(=O)[O-]`, the T/C runs as follows: (dose: 3.12 mg/kg/injection, schedule: Q01DX009 (ip), vehicle: saline) 87 % of control; (dose: 6.25 mg/kg/injection, schedule: Q01DX009 (ip), vehicle: saline) 91 % of control; under setting [1], 97 % of control; under setting [3], 86 % of control; under setting [4], 95 % of control; under setting [5], 98 % of control.

Take `CNC(=O)OCc1c(COC(=O)NC)c(-c2c(F)cccc2F)n2c1CCC2`: the T/C runs as follows: (dose: 6.25 mg/kg/injection, schedule: Q01DX009 (ip), vehicle: water) 166 % of control; (dose: 12.5 mg/kg/injection, schedule: Q01DX009 (ip), vehicle: distilled water + Tween-80) 155 % of control; (dose: 25.0 mg/kg/injection, schedule: Q01DX009 (ip), vehicle: distilled water + Tween-80) 108 % of control; (dose: 25.0 mg/kg/injection, schedule: Q01DX009 (ip), vehicle: water) 88 % of control.

On to `CCOC(=O)N(CCN(C(=O)OCC)C1CCCCC1)C1CCCCC1`, for which the T/C is, setting by setting: under setting [11], 99 % of control; (dose: 100.0 mg/kg/injection, schedule: Q04DX002 (ip), vehicle: saline with Tween-80) 100 % of control; under setting [12], 99 % of control; (dose: 200.0 mg/kg/injection, schedule: Q04DX002 (ip), vehicle: saline with Tween-80) 90 % of control; under setting [13], 89 % of control; (dose: 400.0 mg/kg/injection, schedule: Q04DX002 (ip), vehicle: saline with Tween-80) 89 % of control.

In the case of `COc1ccc(-c2c(C#N)cnc(C)c2C)c(OCc2ccccc2)c1OC`, the T/C reads like this: (dose: 12.5 mg/kg/injection, schedule: Q01DX009 (ip), vehicle: other) 106 % of control; (dose: 25.0 mg/kg/injection, schedule: Q01DX009 (ip), vehicle: other) 101 % of control; (dose: 50.0 mg/kg/injection, schedule: Q01DX009 (ip), vehicle: other) 105 % of control; (dose: 100.0 mg/kg/injection, schedule: Q01DX009 (ip), vehicle: other) 98 % of control; (dose: 200.0 mg/kg/injection, schedule: Q01DX009 (ip), vehicle: other) 92 % of control.

Take `COC(CC(C)(O)C(F)(F)F)OC` (stereo not given): the T/C reads like this: (dose: 60.0 mg/kg/injection, schedule: Q01DX005 (ip), vehicle: saline) 103 % of control; (dose: 120.0 mg/kg/injection, schedule: Q01DX005 (ip), vehicle: saline) 112 % of control; (dose: 240.0 mg/kg/injection, schedule: Q01DX005 (ip), vehicle: saline) 110 % of control.

With `CCOC(=O)CC(CC(=O)OCC)(C(=O)OCC)C(=O)OCC`, the T/C is, setting by setting: (dose: 50.0 mg/kg/injection, schedule: Q01DX009 (ip), vehicle: saline with Tween-80) 92 % of control; (dose: 100.0 mg/kg/injection, schedule: Q01DX009 (ip), vehicle: saline with Tween-80) 100 % of control; (dose: 200.0 mg/kg/injection, schedule: Q01DX009 (ip), vehicle: saline with Tween-80) 96 % of control; under setting [14], 100 % of control.

Consider `O=C(CC1(O)C(=O)Nc2ccccc21)c1ccc(Br)cc1` (stereo not given), for which the T/C by setting is: (dose: 50.0 mg/kg/injection, schedule: Q01DX005 (ip), vehicle: saline with Tween-80) 108 % of control; (dose: 100.0 mg/kg/injection, schedule: Q01DX005 (ip), vehicle: saline with Tween-80) 103 % of control; (dose: 200.0 mg/kg/injection, schedule: Q01DX005 (ip), vehicle: saline with Tween-80) 100 % of control.

Regarding `O=c1[nH]c2ccccc2nc1C1(F)CCCC1`, the T/C is, setting by setting: under setting [11], 98 % of control; under setting [12], 92 % of control; under setting [13], 89 % of control.

As for `CCCCCCCC/C=C\CCCCCCCC(=O)OC`, the T/C reads like this: (dose: 177.0 mg/kg/injection, schedule: Q01DX009 (ip), vehicle: saline with Tween-80) 109 % of control; (dose: 266.0 mg/kg/injection, schedule: Q01DX009 (ip), vehicle: saline with Tween-80) 116 % of control; under setting [14], 106 % of control; (dose: 600.0 mg/kg/injection, schedule: Q01DX009 (ip), vehicle: saline with Tween-80) 107 % of control.

Consider `Fc1ccc(-c2cc(-c3cc(-c4ccc(F)cc4)n[nH]3)[nH]n2)cc1`, for which the T/C is 91 % of control (dose: 60.0 mg/kg/injection, schedule: Q01DX005 (ip), vehicle: Klucel + Tween-80); 88 % of control (dose: 120.0 mg/kg/injection, schedule: Q01DX005 (ip), vehicle: Klucel + Tween-80); 88 % of control (dose: 240.0 mg/kg/injection, schedule: Q01DX005 (ip), vehicle: Klucel + Tween-80).

As to `CCOC(=O)C(Cc1ccccc1)NO` (stereo not given), the T/C is, setting by setting: (dose: 6.25 mg/kg/injection, schedule: Q01DX009 (ip), vehicle: saline with Tween-80) 98 % of control; (dose: 12.5 mg/kg/injection, schedule: Q01DX009 (ip), vehicle: saline with Tween-80) 100 % of control.

With `O=C(NNc1ccccc1)c1ccccc1Cl`, the T/C reads like this: under setting [2], 101 % of control; under setting [3], 105 % of control; under setting [4], 97 % of control; under setting [5], 98 % of control.
